{"source": "patent US7247627B2", "about": "“Salts and polymorphs of a pyrrole-substituted indolinone compound” (Pharmacia & Upjohn Company, priority 2003, dated 2007)", "key": {"[1]": {"test": "Hygroscopicity by dynamic moisture sorption gravimetry (DMSG)", "assay_type": "physicochemical", "settings": "for hygroscopicity / hysteresis of sorption profile / Water Uptake at 80% RH (wt. %): DMSG; for Water Uptake at 80% RH (wt. %): 25° C.", "description": "In one embodiment, the invention provides a non-hygroscopic salt of 5-[(Z)-(5-fluoro-2-oxo-1,2-dihydro-3H-indol-3-ylidene)methyl]-N-[(2S)-2-hydroxy-3-morpholin-4-ylpropyl]-2,4-dimethyl-1H-pyrrole-3-carboxamide. Hygroscopicity is determined by dynamic moisture sorption gravimetry (DMSG) using a controlled atmosphere microbalance at a temperature of 25° C. Samples are analyzed over a relative humidity range of from 0 to 90% in 3% steps. Each step is brought to equilibrium before moving to the next step, with equilibrium assessed as a weight change of less than 0.002 mg (0.02%) for five consecutive points at 1 point per 120 seconds.\nSeveral salts of 5-[(Z)-(5-fluoro-2-oxo-1,2-dihydro-3H-indol-3-ylidene)methyl]-N-[(2S)-2-hydroxy-3-morpholin-4-ylpropyl]-2,4-dimethyl-1H-pyrrole-3-carboxamide were produced and analyzed for hygroscopicity. Hygroscopicity was determined by dynamic moisture sorption gravimetry (DMSG) using a controlled atmosphere microbalance at a temperature of 25° C. Samples were analyzed over a relative humidity range of from 0 to 90% in 3% steps, in a humidity profile of […], where the initial value of 36% reflects the approximate initial equilibrated relative humidity (not specifically measured). Each step was brought to equilibrium before moving to the next step, with equilibrium assessed as a weight change of less than 0.001 mg (0.01%) or 0.002 mg (0.02%) for five consecutive points at 1 point per 120 seconds. The water uptake at 80% relative humidity (RH) was selected for comparison between the salts. The 80% RH values for each salt are shown in Table 5, and the right column of the table identifies the corresponding Figure showing the complete DMSG scan. A range of values given for the water uptake at 80% reflects hysteresis in the 0→90% and 90→0% scans."}, "[2]": {"test": "Crystal form stability by PXRD (Example 3)", "assay_type": "physicochemical", "settings": "40° C. and 75% relative humidity", "description": "Crystal form stability was assessed for samples of 5-[(Z)-(5-fluoro-2-oxo-1,2-dihydro-3H-indol-3-ylidene)methyl]-N-[(2S)-2-hydroxy-3-morpholin-4-ylpropyl]-2,4-dimethyl-1 H-pyrrole-3-carboxamide maleate salt, polymorph Form 1, polymorph Form 2, and a mixture of polymorph Form 1 and Form 2. In each case, a sample of the substance was placed into a controlled temperature and humidity stability chamber at 40° C. and 75% relative humidity. Samples were taken several times during the duration of the test and analyzed for qualitative changes in the PXRD patterns."}, "[3]": {"test": "Six-week stability study, HPLC chemical and enantiomeric stability, PXRD (Example 4)", "assay_type": "physicochemical", "settings": "for Total Impurity (%): closed vial", "description": "A six-week stability study was carried out on samples of 5-[(Z)-(5-fluoro-2-oxo-1,2-dihydro-3H-indol-3-ylidene)methyl]-N-[(2S)-2-hydroxy-3-morpholin-4-ylpropyl]-2,4-dimethyl-1H-pyrrole-3-carboxamide maleate salt, polymorph Form 1. The compound was exposed for 6 weeks, closed vial, at three stability test conditions: 5° C., 25° C./60% relative humidity and 40° C./75% relative humidity, and analyzed for chemical and enantiomeric stability as described in Example 2, except that the HPLC instrument was an Agilent 1100 series.\nThe percent recovery was calculated based on the average response factor obtained from a reference standard throughout the HPLC run, and considering the E isomer as the compound and not as an impurity. […] The isomerization is often an artifact of sample preparation and analysis. […] The values shown in the table are averages of several injections."}, "[4]": {"test": "TGA of six-week stability samples", "assay_type": "physicochemical", "description": "TGA measurements were performed using a TA Instruments model 2950 Hi-Res analyzer with a Thermal Analyst 5000 controller. Samples were placed onto a tared platinum hanging pan and heated to at least 165° C. at a rate of 10° C./min. Dry nitrogen was used as a purge gas.\nTo determine the thermal stability and residual solvent content, the same samples were analyzed by DSC and TGA."}, "[5]": {"system": "hepatic cytochrome P450", "test": "Metabolism in preclinical species and in human hepatocytes and microsomes", "assay_type": "in vitro ADME", "settings": "preclinical species (in vivo and in vitro)", "description": "The primary site of metabolism is the morpholinyl group. Three metabolites have been identified in vivo following single oral administration (100 mg/kg) to cynomolgus monkeys (FIG. 8). These 3 metabolites, which were detected at <16% relative abundance to parent in monkey plasma, were also the major products observed in human microsomes and hepatocytes. Relative abundance was determined from monkey plasma following a single dose of 5-[(Z)-(5-fluoro-2-oxo-1,2-dihydro-3H-indol-3-ylidene)methyl]-N-[(2S)-2-hydroxy-3-morpholin-4-ylpropyl]-2,4-dimethyl-1H-pyrrole-3-carboxamide (100 mg/kg) and based on (AUC0-12 metabolite/AUC0-12 parent)×100, estimated from the characteristic indole UV absorption at 440 nm. The N,O-dealkylation metabolite has been confirmed via nuclear magnetic resonance (NMR). […] The morpholinyl lactam metabolite is the product of oxygenation-dehydrogenation and has also been confirmed via NMR. The morpholinyl hemi-aminal metabolite is an unstable metabolite identified via an iminium-ion trapping experiment. Relative abundance was determined by UV response at 428 nm."}, "[6]": {"test": "Solid-state properties of the free base form", "assay_type": "physicochemical"}, "[7]": {"system": "solid and hematopoietic cancer xenograft models", "settings": "diverse preclinical solid and hematopoietic cancer xenograft models; cited from earlier work"}, "[8]": {"settings": "6-week sample stored at 25° C./60% RH"}, "[9]": {"settings": "6-week sample stored at 40° C./75% RH"}}, "note": "Counter-ions that a name gives are not always drawn.", "data": [{"smiles": "Cc1[nH]c(/C=C2\\C(=O)Nc3ccc(F)cc32)c(C)c1C(=O)NC[C@H](O)CN1CCOCC1", "note": "[HCl, form 2, 5-[(Z)-(5-fluoro-2-oxo-1,2-dihydro-3H-indol-3-ylidene)methyl]-N-[(2S)-2-hydroxy-3-morpholin-4-ylpropyl]-2,4-dimethyl-1H-pyrrole-3-carboxamide]", "values": [{"measurement": "hygroscopicity", "setting": "[1]", "value": "relatively non-hygroscopic"}, {"measurement": "hysteresis of sorption profile", "setting": "[1]", "value": "no significant hysteresis"}, {"measurement": "Water Uptake at 80% RH (wt. %)", "setting": "[1]; 80% relative humidity", "value": 1.2, "unit": "wt. %"}]}, {"smiles": "Cc1[nH]c(/C=C2\\C(=O)Nc3ccc(F)cc32)c(C)c1C(=O)NC[C@H](O)CN1CCOCC1", "note": "[mixed Form 1/Form 2, 5-[(Z)-(5-fluoro-2-oxo-1,2-dihydro-3H-indol-3-ylidene)methyl]-N-[(2S)-2-hydroxy-3-morpholin-4-ylpropyl]-2,4-dimethyl-1H-pyrrole-3-carboxamide]", "values": [{"measurement": "crystal form changes in the PXRD pattern", "setting": "[2]; 6 weeks", "value": "no crystal form changes were observed"}]}, {"smiles": "Cc1[nH]c(/C=C2\\C(=O)Nc3ccc(F)cc32)c(C)c1C(=O)NC[C@H](O)CN1CCOCC1", "note": "[Mandalate, 5-[(Z)-(5-fluoro-2-oxo-1,2-dihydro-3H-indol-3-ylidene)methyl]-N-[(2S)-2-hydroxy-3-morpholin-4-ylpropyl]-2,4-dimethyl-1H-pyrrole-3-carboxamide]", "values": [{"measurement": "Water Uptake at 80% RH (wt. %)", "setting": "[1]; 80% relative humidity", "value": "5–6 wt. %"}]}, {"smiles": "Cc1[nH]c(/C=C2\\C(=O)Nc3ccc(F)cc32)c(C)c1C(=O)NC[C@H](O)CN1CCOCC1", "note": "[HCl, form 1, 5-[(Z)-(5-fluoro-2-oxo-1,2-dihydro-3H-indol-3-ylidene)methyl]-N-[(2S)-2-hydroxy-3-morpholin-4-ylpropyl]-2,4-dimethyl-1H-pyrrole-3-carboxamide]", "values": [{"measurement": "Water Uptake at 80% RH (wt. %)", "setting": "[1]; 80% relative humidity", "value": "3–20 wt. %"}, {"measurement": "hysteresis of sorption profile", "setting": "[1]; listed as hydrochloride salt", "value": "significant hysteresis"}]}, {"smiles": "Cc1[nH]c(/C=C2\\C(=O)Nc3ccc(F)cc32)c(C)c1C(=O)NC[C@H](O)CN1CCOCC1", "note": "[L-malate, 5-[(Z)-(5-fluoro-2-oxo-1,2-dihydro-3H-indol-3-ylidene)methyl]-N-[(2S)-2-hydroxy-3-morpholin-4-ylpropyl]-2,4-dimethyl-1H-pyrrole-3-carboxamide]", "values": [{"measurement": "Water Uptake at 80% RH (wt. %)", "setting": "[1]; 80% relative humidity", "value": "12–13 wt. %"}]}, {"smiles": "Cc1[nH]c(/C=C2\\C(=O)Nc3ccc(F)cc32)c(C)c1C(=O)NC[C@H](O)CN1CCOCC1", "note": "[Form 2, 5-[(Z)-(5-fluoro-2-oxo-1,2-dihydro-3H-indol-3-ylidene)methyl]-N-[(2S)-2-hydroxy-3-morpholin-4-ylpropyl]-2,4-dimethyl-1H-pyrrole-3-carboxamide]", "values": [{"measurement": "Water Uptake at 80% RH (wt. %)", "setting": "[1]; 80% relative humidity, listed as Maleate", "value": 0.8, "unit": "wt. %"}, {"measurement": "crystal form changes in the PXRD pattern", "setting": "[2]; 134 days", "value": "no crystal form changes were observed"}]}, {"smiles": "Cc1[nH]c(/C=C2\\C(=O)Nc3ccc(F)cc32)c(C)c1C(=O)NC[C@H](O)CN1CCOCC1", "note": "[Form 1, 5-[(Z)-(5-fluoro-2-oxo-1,2-dihydro-3H-indol-3-ylidene)methyl]-N-[(2S)-2-hydroxy-3-morpholin-4-ylpropyl]-2,4-dimethyl-1H-pyrrole-3-carboxamide]", "values": [{"measurement": "crystal form changes in the PXRD pattern", "setting": "[2]; 163 days", "value": "no crystal form changes were observed"}, {"measurement": "crystalline changes by PXRD compared to a control sample", "setting": "[3]; 6-week samples maintained at 40° C./75% RH", "value": "no crystalline changes"}, {"measurement": "chiral transformation", "setting": "[3]; 6-week stability samples, any samples", "value": "no chiral transformation observed"}, {"measurement": "Total Impurity (%)", "setting": "[3]; 6 weeks, 5° C. ± 3° C.", "value": 1.67, "unit": "%"}, {"measurement": "Total Impurity (%)", "setting": "[3]; 6 weeks, 25° C. ± 2° C., 60% RH", "value": 1.85, "unit": "%"}, {"measurement": "Total Impurity (%)", "setting": "[3]; 6 weeks, 40° C. ± 2° C.C, 76% RH", "value": 1.86, "unit": "%"}, {"measurement": "assay of the 6-week stability samples", "setting": "[3]; all three stability conditions", "value": "97.1–98.5%"}, {"measurement": "Enantiomeric stability, amount of R isomer", "setting": "[3]; samples held at 80° C. for 2 weeks", "value": "no increase in the amount of R isomer observed"}, {"measurement": "stability", "setting": "[3]; under all stability conditions investigated, 6 weeks", "value": "stable"}, {"measurement": "TGA Wt. Loss (%), 25° C.–125° C.", "setting": "[4]; 6-week sample stored at 5° C.", "value": 1.44, "unit": "%"}, {"measurement": "TGA Wt. Loss (%), 25° C.–275° C.", "setting": "[4]; 6-week sample stored at 5° C.", "value": 23.15, "unit": "%"}, {"measurement": "TGA Wt. Loss (%), 25° C.–125° C.", "setting": "[4]; [8]", "value": 1.36, "unit": "%"}, {"measurement": "TGA Wt. Loss (%), 25° C.–275° C.", "setting": "[4]; [8]", "value": 24.36, "unit": "%"}, {"measurement": "TGA Wt. Loss (%), 25° C.–125° C.", "setting": "[4]; [9]", "value": 1.66, "unit": "%"}, {"measurement": "TGA Wt. Loss (%), 25° C.–275° C.", "setting": "[4]; [9]", "value": 20.61, "unit": "%"}, {"measurement": "TGA significant weight loss at 207° C.", "setting": "[4]; 6-week samples", "value": "21-23%"}, {"measurement": "TGA weight loss between 25–125° C.", "setting": "[4]; 6-week samples", "value": "less than 2%"}]}, {"smiles": "Cc1[nH]c(/C=C2\\C(=O)Nc3ccc(F)cc32)c(C)c1C(=O)NC[C@H](O)CN1CCOCC1", "note": "[Tosylate, 5-[(Z)-(5-fluoro-2-oxo-1,2-dihydro-3H-indol-3-ylidene)methyl]-N-[(2S)-2-hydroxy-3-morpholin-4-ylpropyl]-2,4-dimethyl-1H-pyrrole-3-carboxamide]", "values": [{"measurement": "Water Uptake at 80% RH (wt. %)", "setting": "[1]; 80% relative humidity", "value": 7, "unit": "wt. %"}, {"measurement": "Uptake of water", "setting": "[1]; at about 65% relative humidity", "value": "about 2.5%"}]}, {"smiles": "Cc1[nH]c(/C=C2\\C(=O)Nc3ccc(F)cc32)c(C)c1C(=O)NC[C@H](O)CN1CCOCC1", "note": "[5-[(Z)-(5-fluoro-2-oxo-1,2-dihydro-3H-indol-3-ylidene)methyl]-N-[(2S)-2-hydroxy-3-morpholin-4-ylpropyl]-2,4-dimethyl-1H-pyrrole-3-carboxamide]", "values": [{"measurement": "metabolism pathway", "setting": "[5]", "value": "proceeds primarily through an oxidative pathway mediated by hepatic cytochrome P450"}, {"measurement": "chemical and enantiomeric stability", "setting": "[6]", "value": "chemically and enantiomerically stable"}, {"measurement": "hygroscopicity", "setting": "[6]", "value": "relatively non-hygroscopic"}, {"measurement": "anti-tumor activity", "setting": "[7]", "value": "has anti-tumor activity"}]}, {"smiles": "Cc1[nH]c(/C=C2\\C(=O)Nc3ccc(F)cc32)c(C)c1C(=O)NC[C@H](O)CN1CCOCC1", "note": "[Malonate, 5-[(Z)-(5-fluoro-2-oxo-1,2-dihydro-3H-indol-3-ylidene)methyl]-N-[(2S)-2-hydroxy-3-morpholin-4-ylpropyl]-2,4-dimethyl-1H-pyrrole-3-carboxamide]", "values": [{"measurement": "Water Uptake at 80% RH (wt. %)", "setting": "[1]; 80% relative humidity", "value": 12, "unit": "wt. %"}]}, {"smiles": "Cc1[nH]c(/C=C2\\C(=O)Nc3ccc(F)cc32)c(C)c1C(=O)NC[C@H](O)CN1CCOCC1", "note": "[initial maleate salt, 5-[(Z)-(5-fluoro-2-oxo-1,2-dihydro-3H-indol-3-ylidene)methyl]-N-[(2S)-2-hydroxy-3-morpholin-4-ylpropyl]-2,4-dimethyl-1H-pyrrole-3-carboxamide]", "values": [{"measurement": "moisture uptake", "setting": "[1]; 80% relative humidity", "value": "about 9%"}, {"measurement": "hygroscopicity", "setting": "[1]", "value": "hygroscopic"}]}, {"smiles": "Cc1[nH]c(/C=C2\\C(=O)Nc3ccc(F)cc32)c(C)c1C(=O)NC[C@H](O)CN1CCOCC1", "note": "[L-tartrate, 5-[(Z)-(5-fluoro-2-oxo-1,2-dihydro-3H-indol-3-ylidene)methyl]-N-[(2S)-2-hydroxy-3-morpholin-4-ylpropyl]-2,4-dimethyl-1H-pyrrole-3-carboxamide]", "values": [{"measurement": "Water Uptake at 80% RH (wt. %)", "setting": "[1]; 80% relative humidity", "value": 9, "unit": "wt. %"}]}]}
